Results taken from patent publication US5159077A, “Penam antibacterial compounds” (Hoffmann-La Roche Inc., priority 1989, dated 1992).
In brackets after ≈: the same amount, converted by molar mass. Where a name gives a salt, the structure may show the parent alone. Read-outs that look alike come from different tables or passages of the source.

Experiments:
[1] = system: Streptococcus 82; test: In vitro MIC, Agar Well Diffusion Method; format: cell-based, Streptococcus aureus; details: Agar Well Diffusion Method; Streptococcus aureus 82; read-out: In Vitro MIC
Method: (§1) In vitro antimicrobial activity was determined in BBL seed agar. Serial dilutions of the test compound were pipetted into agar wells (80 μL per well). […] For reference, see A. H. Litton, Antibiotics: Assessment of Antimicrobial Activity and Resistance, Academic Press, New York, pages 19-30 (1983).

[2] = system: Staphylococcus aureus ATCC 29213; test: In vitro MIC, Broth Dilution Method; format: cell-based; details: ATCC29213; Broth Dilution Method; Staphylococcus aureus ATCC 29213; read-out: In Vitro MIC
Method: (§2) The diluted agents prepared in Mueller-Hinton broth were dispensed from a Dynatech MIC 2000 machine, in 100 microliter (μL) volumes into 96 well trays and used immediately or frozen at -10° to -70° C. until needed. Using a Dynatech inoculator and inoculum trays, 1.5 μL of a 10^-2 dilution of an overnight culture was added to each well of the tray. The tops of the trays were then sealed with tape, and the trays were incubated overnight at 37° C. and then examined with a viewer. The lowest concentration at which no growth was observed was considered to be the minimum inhibitory concentration (MIC).

[3] = system: Serratia marcescens SM; test: In vitro MIC, Broth Dilution Method; format: cell-based; details: Broth Dilution Method; Serratia marcescens SM; read-out: In Vitro MIC
Method: as §2

[4] = system: Proteus mirabilis 2; test: In vitro MIC, Broth Dilution Method; format: cell-based
Method: as §2

[5] = system: Staphylococcus aureus Smith; test: In vitro MIC, Broth Dilution Method; format: cell-based; details: read-out: In Vitro MIC
Method: as §2

[6] = system: Klebsiella pneumoniae A; test: In vitro MIC, Broth Dilution Method; format: cell-based; details: read-out: In Vitro MIC
Method: as §2

[7] = system: Escherichia coli 4; test: In vitro MIC, Broth Dilution Method; format: cell-based
Method: as §2

[8] = system: Streptococcus pneumoniae 6301; test: In vitro MIC, Broth Dilution Method; format: cell-based
Method: as §2

[9] = system: Enterobacter cloacae 5699; test: In vitro MIC, Broth Dilution Method; format: cell-based; details: Broth Dilution Method; Enterobacter cloacae 5699; read-out: In Vitro MIC
Method: as §2

[10] = system: Escherichia coli TEM-1; test: In vitro MIC, Broth Dilution Method; format: cell-based; details: TEM1, read-out: In Vitro MIC
Method: as §2

[11] = system: Proteus vulgaris ATCC 6380; test: In vitro MIC, Broth Dilution Method; format: cell-based; details: Proteus vulgaris, ATCC6380, read-out: In Vitro MIC
Method: as §2

[12] = system: Pseudomonas aeruginosa ATCC 27853; test: In vitro MIC, Broth Dilution Method; format: cell-based; details: ATCC27853; Broth Dilution Method; Pseudomonas aeruginosa ATCC 27853; read-out: In Vitro MIC
Method: as §2

[13] = system: Pseudomonas aeruginosa Stone 130; test: In vitro MIC, Broth Dilution Method; format: cell-based; details: STONE130; Broth Dilution Method; Pseudomonas aeruginosa Stone 130; read-out: In Vitro MIC
Method: as §2

[14] = system: Enterobacter cloacae P99; test: In vitro MIC, Broth Dilution Method; format: cell-based; details: P99, read-out: In Vitro MIC
Method: as §2

[15] = system: Citrobacter freundii BS-16; test: In vitro MIC, Broth Dilution Method; format: cell-based; details: BS16; Broth Dilution Method; Citrobacter freundii BS-16; read-out: In Vitro MIC
Method: as §2

[16] = system: Proteus mirabilis 90; test: In vitro MIC, Broth Dilution Method; format: cell-based; details: Broth Dilution Method; Proteus mirabilis 90; read-out: In Vitro MIC
Method: as §2

[17] = system: Streptococcus faecalis ATCC 29212; test: In vitro MIC, Broth Dilution Method; format: cell-based; details: Enterococcus faecalis, ATCC29212; Broth Dilution Method; Streptococcus faecalis ATCC 29212; read-out: In Vitro MIC
Method: as §2

[18] = system: Serratia marcescens SM; test: In vitro MIC, Agar Well Diffusion Method; format: cell-based; details: Agar Well Diffusion Method; Serratia marcescens SM; read-out: In Vitro MIC
Method: as §1

[19] = system: Proteus vulgaris 101N; test: In vitro MIC, Agar Well Diffusion Method; format: cell-based; details: Agar Well Diffusion Method; Proteus vulgaris 101N; read-out: In Vitro MIC
Method: as §1

[20] = system: Streptococcus faecium ATCC 8043; test: In vitro MIC, Agar Well Diffusion Method; format: cell-based; details: Enterococcus faecium, ATCC8043; Agar Well Diffusion Method; Streptococcus faecium ATCC 8043; read-out: In Vitro MIC
Method: as §1

[21] = system: Enterobacter cloacae 2952B; test: In vitro MIC, Agar Well Diffusion Method; format: cell-based; details: Agar Well Diffusion Method; Enterobacter cloacae 2952B; read-out: In Vitro MIC
Method: as §1

[22] = system: Pseudomonas aeruginosa 56; test: In vitro MIC, Agar Well Diffusion Method; format: cell-based; details: Agar Well Diffusion Method; Pseudomonas aeruginosa 56; read-out: In Vitro MIC
Method: as §1

[23] = system: Micrococcus luteus PCl; test: In vitro MIC, Agar Well Diffusion Method; format: cell-based; details: Agar Well Diffusion Method; Micrococcus luteus PCl; read-out: In Vitro MIC
Method: as §1

[24] = system: Escherichia coli 1269B; test: In vitro MIC, Agar Well Diffusion Method; format: cell-based; details: Agar Well Diffusion Method; Escherichia coli 1269B; read-out: In Vitro MIC
Method: as §1

[25] = system: Pseudomonas aeruginosa B; test: In vitro MIC, Agar Well Diffusion Method; format: cell-based; details: Agar Well Diffusion Method; Pseudomonas aeruginosa B; read-out: In Vitro MIC
Method: as §1

[26] = system: Klebsiella pneumoniae 369; test: In vitro MIC, Agar Well Diffusion Method; format: cell-based; details: Agar Well Diffusion Method; Klebsiella pneumoniae 369; read-out: In Vitro MIC
Method: as §1

[27] = Proteus mirabilis, 2, read-out: In Vitro MIC
[28] = Broth Dilution Method, Staphylococcus aureus Smith
[29] = Broth Dilution Method, Klebsiella pneumoniae A
[30] = Broth Dilution Method, Escherichia coli 4, read-out: In Vitro MIC
[31] = Broth Dilution Method, Streptococcus pneumoniae 6301, read-out: In Vitro MIC

Row | SMILES | MIC [1] | MIC [2] | MIC [3] | MIC [9] | MIC [10] | MIC [11] | MIC [12] | MIC [13] | MIC [14] | MIC [15] | MIC [16] | MIC [17] | MIC [18] | MIC [19] | MIC [20] | MIC [21] | MIC [22] | MIC [23] | MIC [24] | MIC [25] | further results
1 | CCn1cc(C(=O)O)c(=O)c2cc(F)c(N3CCCN(C=N[C@@H]4C(=O)N5[C@@H]4SC(C)(C)[C@@H]5C(=O)O)CC3)cc21 [Compound G, [2S-(2α,5α,6β)]-7-[4-[[)2-Carboxy-3,3-dimethyl-7-oxo-4-thia-1-azabicyclo[3.2.0]hept-6-yl)-imino]methyl]hexahydro-1H-1,4-diazepin-1-yl]-1-ethyl-6-fluoro-1,4-dihydro-4-oxo-3-quinolinecarboxylic acid disodium salt] | 50 µg/mL | 16 µg/mL | 2 µg/mL | 2 µg/mL | 1 µg/mL | 1 µg/mL | 16 µg/mL | 8 µg/mL | 2 µg/mL | 8 µg/mL | 8 µg/mL | 64 µg/mL | 50 µg/mL | 50 µg/mL | > 400 µg/mL | 100 µg/mL | 100 µg/mL | 25 µg/mL | 50 µg/mL | 50 µg/mL | MIC [4, 27]: 4 µg/mL; MIC [5, 28]: 2 µg/mL; MIC [6, 29]: 2 µg/mL; MIC [7, 30]: 2 µg/mL; MIC [8, 31]: 2 µg/mL; MIC [26]: 100 µg/mL
2 | CCn1cc(C(=O)OC)c(=O)c2cc(F)c(N3CCN(C=N[C@@H]4C(=O)N5[C@@H]4SC(C)(C)[C@@H]5C(=O)O)CC3)cc21 [Compound A] | 7.8 µg/mL (≈ 13.9 µM) | 16 µg/mL (≈ 28.6 µM) | 16 µg/mL (≈ 28.6 µM) | 8 µg/mL (≈ 14.3 µM) | 4 µg/mL (≈ 7.15 µM) | 4 µg/mL (≈ 7.15 µM) | > 128 µg/mL | 64 µg/mL (≈ 114 µM) | 8 µg/mL (≈ 14.3 µM) | 32 µg/mL (≈ 57.2 µM) | 32 µg/mL (≈ 57.2 µM) | 32 µg/mL (≈ 57.2 µM) | 250 µg/mL (≈ 447 µM) | 62.5 µg/mL (≈ 112 µM) | 250 µg/mL (≈ 447 µM) | 62.5 µg/mL (≈ 112 µM) | 500 µg/mL (≈ 893 µM) | 31.3 µg/mL (≈ 55.9 µM) | 62.5 µg/mL (≈ 112 µM) | 250 µg/mL (≈ 447 µM) | MIC ([4]; Broth Dilution Method, Proteus mirabilis 2, read-out: In Vitro MIC): 8 µg/mL (≈ 14.3 µM); MIC [5, 28]: 2 µg/mL (≈ 3.57 µM); MIC [6, 29]: 16 µg/mL (≈ 28.6 µM); MIC [7, 30]: 8 µg/mL (≈ 14.3 µM); MIC ([8]; Streptococcus pneumoniae, 6301, read-out: In Vitro MIC): 1 µg/mL (≈ 1.79 µM); MIC [26]: 125 µg/mL (≈ 223 µM)
3 | CC1(C)S[C@@H]2[C@H](N=CN3CCN(c4c(F)cc5c(=O)c(C(=O)O)cn(CCF)c5c4F)CC3)C(=O)N2[C@H]1C(=O)O [Compound D, 2R-(2α,5α,6β)]-7-[4-[[(2-Carboxy-3,3-dimethyl-7-oxo-4-thia-1-azabicyclo[3.2.0]hept-6-yl)amino]-methylene]-1-piperazinyl]-6,8-difluoro-1-(2-fluoroethyl)-1,4-dihydro-4-dihydro-4-oxo-3-quinoline-carboxylic acid monosodium salt] | 3.9 µg/mL | 4 µg/mL | 0.25 µg/mL | 0.25 µg/mL | 0.125 µg/mL | 0.063 µg/mL | 2 µg/mL | 4 µg/mL | 0.125 µg/mL | 1 µg/mL | 1 µg/mL | 32 µg/mL | 31.3 µg/mL | 1.95 µg/mL | 15.6 µg/mL | 7.8 µg/mL | 7.8 µg/mL | 15.6 µg/mL | 1.95 µg/mL | 15.6 µg/mL | MIC [4, 27]: 0.125 µg/mL; MIC ([5]; Staphylococcus aureus): 0.5 µg/mL; MIC ([6]; Klebsiella pneumoniae): 0.125 µg/mL; MIC ([7]; Escherichia coli, 4, read-out: In Vitro MIC): 0.125 µg/mL; MIC [8, 31]: 2 µg/mL; MIC [26]: 7.8 µg/mL
